Measured values: patent US8426447B2, “Spiro-tricyclic ring compounds as beta-secretase modulators and methods of use” (Amgen Inc., priority 2008, dated 2013)
Blank lines part the entries; values can stand above or below the molecule they belong to.

Columns and labels:
BACE1 [1] = molecular target: T1, BACE1 (Homo sapiens, UniProt P56817); assay: In Vitro BACE Cell-based Assay (HEK cell assay): Aβ40 in conditioned medium of cells stably expressing Amyloid Precursor Protein, sandwich ELISA; conditions: read-out: HEK cell assay
Summary of the method: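 APP-expressing cells were cultured 24 h in DMEM/10% FBS, then treated 24 h with compounds in 10-point dose response (top 100 μM or 10 μM; 0.1% DMSO final). Secreted Aβ40 was quantified by sandwich ELISA (pAb40 capture, biotinylated 6E10 detection, Europium TRF); IC50 from percent inhibition versus concentration.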

BACE1 [2] = molecular target: T1, BACE1; assay: In Vitro Enzymatic BACE FRET (Fluorescence Resonance Energy Transfer) Assay; type: biochemical; conditions: read-out: BACE1 FRET assay
Summary of the method: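 Acetate buffer at pH 4.2 with 10% DMSO and 100 uM genapol hosts the enzymatic reaction, initiated by 50 nM FRET substrate and allowed to proceed one hour. Tris quench to neutral pH precedes the fluorescence measurement.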

[3] = system: amyloid beta peptide (A-beta) in cerebrospinal fluid and brain; assay: In Vivo Inhibition of Beta-Secretase: reduction of A-beta levels in CSF and brain; conditions: after 4 hrs, mouse or rat
From the text: Several animal models, including mouse, rat, dog, and monkey, may be used to screen for inhibition of beta-secretase activity in vivo following administration of a test compound sample. Animals used in this invention can be wild type, transgenic, or gene knockout animals. […] A separate group of animals receive 2% hydroxypropyl methylcellulose, 1% Tween80 alone, containing no test compound, and serve as a vehicle-control group. At the end of the test period, animals are sacrificed and brain tissues, plasma or cerebrospinal fluid are collected. […] Homogenates are centrifuged at 355,000 g, 4° C. for 30 minutes. CSF or brain supernatants are then analyzed for the presence of A-beta peptide by specific sandwich ELISA assays based on ECL (Electrochemiluminescence) technology. For example, rat Abeta40 is measured using biotinylated-4G8 (Signet) as a capture antibody and Fab40 (an in-house antibody specific to the C-terminal of Abeta40) as a detection antibody.

T1 sequence (P56817 46-501, species assumed): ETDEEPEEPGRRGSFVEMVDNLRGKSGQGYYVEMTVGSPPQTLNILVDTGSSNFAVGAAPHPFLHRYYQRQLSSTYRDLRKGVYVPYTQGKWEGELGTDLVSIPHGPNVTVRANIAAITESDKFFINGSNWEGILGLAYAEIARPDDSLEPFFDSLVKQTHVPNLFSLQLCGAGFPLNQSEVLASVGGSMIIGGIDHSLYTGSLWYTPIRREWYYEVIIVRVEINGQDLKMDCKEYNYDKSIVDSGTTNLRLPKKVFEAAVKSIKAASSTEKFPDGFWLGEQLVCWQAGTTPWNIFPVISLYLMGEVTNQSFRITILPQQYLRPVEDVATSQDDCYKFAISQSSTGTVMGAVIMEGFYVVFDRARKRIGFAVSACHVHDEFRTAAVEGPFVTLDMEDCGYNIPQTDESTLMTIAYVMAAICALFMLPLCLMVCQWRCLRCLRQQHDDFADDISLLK

IC50 (BACE1 [1]; HEK cells): < 0.1 µM
IC50 (BACE1 [2]): < 0.1 µM
SMILES: CC(C)(C#N)COc1cc(F)c2c(c1)[C@]1(COC(N)=N1)c1cc(-c3cccnc3F)ccc1O2 [Example 287, (S)-3-(2-amino-5′-fluoro-2′-(2-fluoropyridin-3-yl)-5H-spiro[oxazole-4,9′-xanthene]-7′-yloxy)-2,2-dimethylpropanenitrile]
percent reduction in CSF A-beta levels ([3]; 10 mpk): 48%
percent reduction in brain A-beta levels ([3]; 10 mpk): 32%

IC50 (BACE1 [1]; Table IV, class symbols): < 0.1 µM
IC50 (BACE1 [2]; Table IV, class symbols): < 0.1 µM
SMILES: NC1=N[C@@]2(CO1)c1cc(-c3cc(Cl)ccc3F)ccc1Oc1ncc(C3=CCOCC3)cc12 [Example 296, (S)-7-(5-chloro-2-fluorophenyl)-3-(3,6-dihydro-2H-pyran-4-yl)-5′H-spiro[chromeno[2,3-b]pyridine-5,4′-oxazol]-2′-amine]
percent reduction in CSF A-beta levels ([3]; 10 mpk): 61%
percent reduction in brain A-beta levels ([3]; 10 mpk): 40%

IC50 (BACE1 [1]; Table IV, class symbols): < 0.1 µM
IC50 (BACE1 [2]; Table IV, class symbols): < 0.1 µM
SMILES: CC1(C)CN(c2ccc3c(c2)[C@]2(COC(N)=N2)c2cc(-c4cccnc4)ccc2O3)CCO1 [Example 663, (4S)-2′-(2,2-dimethyl-4-morpholinyl)-7′-(3-pyridinyl)spiro[1,3-oxazole-4,9′-xanthen]-2-amine]
percent reduction in CSF A-beta levels ([3]; 30 mpk): 57%
percent reduction in brain A-beta levels ([3]; 30 mpk): 44%

IC50 (BACE1 [1]; Table IV, class symbols): < 0.1 µM
IC50 (BACE1 [2]; Table IV, class symbols): < 0.1 µM
SMILES: NC1=NC2(CO1)c1cc(-c3cccnc3)ccc1Oc1c(F)cc(C3=CCOCC3)cc12 (stereo in doubt) [Example 297, (R)-2′-(3,6-dihydro-2H-pyran-4-yl)-4′-fluoro-7′-(pyridin-3-yl)-5H-spiro[oxazole-4,9′-xanthen]-2-amine]
percent reduction in CSF A-beta levels ([3]; 30 mpk): 69%
percent reduction in brain A-beta levels ([3]; 30 mpk): 54%

IC50 (BACE1 [1]; Table IV, class symbols): < 0.1 µM
IC50 (BACE1 [2]; Table IV, class symbols): < 0.1 µM
SMILES: CC(C)(C)COc1ccc2c(c1)[C@@]1(COC(N)=N1)c1cc(-c3ccncc3)cnc1O2 [Example 808, (5S)-7-(2,2-dimethylpropoxy)-3-(4-pyridinyl)spiro[chromeno[2,3-b]pyridine-5,4′-[1,3]oxazol]-2′-amine]
percent reduction in CSF A-beta levels ([3]; 30 mpk): 55%
percent reduction in brain A-beta levels ([3]; 30 mpk): 43%

IC50 (BACE1 [1]; Table IV, class symbols): < 0.1 µM
IC50 (BACE1 [2]; Table IV, class symbols): < 0.1 µM
SMILES: NC1=N[C@@]2(CO1)c1cc(-c3cccnc3F)ccc1Oc1ccc(N3CCOCC3)cc12 [Example 289, (S)-2′-(2-fluoropyridin-3-yl)-7′-morpholino-5H-spiro[oxazole-4,9′-xanthen]-2-amine 2,2,2-trifluoroacetate]
percent reduction in CSF A-beta levels ([3]; 10 mpk): 49%
percent reduction in brain A-beta levels ([3]; 10 mpk): 23%
percent reduction in CSF A-beta levels ([3]; 30 mpk): 69%
percent reduction in brain A-beta levels ([3]; 30 mpk): 52%

IC50 (BACE1 [1]): < 0.1 µM
IC50 (BACE1 [2]): < 0.1 µM
SMILES: CC1(C)C=C(c2ccc3c(c2)[C@]2(COC(N)=N2)c2cc(-c4cncnc4)ccc2O3)CCO1 [Example 689, (4R)-2′-(6,6-dimethyl-3,6-dihydro-2H-pyran-4-yl)-7′-(5-pyrimidinyl)spiro[1,3-oxazole-4,9′-xanthen]-2-amine]
percent reduction in CSF A-beta levels ([3]; 30 mpk): 69%
percent reduction in brain A-beta levels ([3]; 30 mpk): 41%

SMILES: CC(C)(C)COc1cnc2c(c1)[C@]1(COC(N)=N1)c1cc(-c3cccnc3)ccc1O2 [Example 744, (5S)-3-(2,2-dimethylpropoxy)-7-(3-pyridinyl)spiro[chromeno[2,3-b]pyridine-5,4′-[1,3]oxazol]-2′-amine]
percent reduction in CSF A-beta levels ([3]; 10 mpk): 37%
percent reduction in brain A-beta levels ([3]; 10 mpk): 26%

IC50 (BACE1 [1]; HEK cells): < 0.1 µM
IC50 (BACE1 [2]): < 0.1 µM
SMILES: CC1(COc2cnc3c(c2)[C@]2(COC(N)=N2)c2cc(-c4ccccc4F)ccc2O3)COC1 [compound 458]

IC50 (BACE1 [1]; Table III, IC50's in uM ranges): < 0.1 µM
IC50 (BACE1 [2]; Table III, IC50's in uM ranges): < 0.1 µM
SMILES: NC1=N[C@@]2(CO1)c1cc(-c3cccnc3)ccc1Oc1ccc(-c3cncnc3)cc12 [compound 225]

IC50 (BACE1 [1]): 1 to 5 µM
IC50 (BACE1 [2]): 0.1 to 1 µM
SMILES: N#CCOc1ccc2c(c1)[C@]1(COC(N)=N1)c1cc(-c3cccnc3)ccc1O2 [compound 981]

IC50 (BACE1 [1]; Table IV, class symbols): < 0.1 µM
IC50 (BACE1 [2]; Table IV, class symbols): < 0.1 µM
SMILES: NC1=N[C@@]2(CO1)c1cc(-c3cccnc3)ccc1Oc1ccc(-c3cnoc3)cc12 [compound 623]

IC50 (BACE1 [1]; Table IV, class symbols): 0.1 to 1 µM
IC50 (BACE1 [2]; Table IV, class symbols): 0.1 to 1 µM
SMILES: Cc1cnc(F)c(-c2ccc3c(c2)[C@@]2(COC(N)=N2)c2cccnc2O3)c1 [compound 571]

IC50 (BACE1 [1]): 1 to 5 µM
IC50 (BACE1 [2]): 1 to 5 µM
SMILES: COc1ccncc1-c1ccc2c(c1)[C@]1(COC(N)=N1)c1cc(OCC(C)(C)C)ccc1O2 [compound 778]

IC50 (BACE1 [1]; Table IV, class symbols): 0.1 to 1 µM
IC50 (BACE1 [2]; Table IV, class symbols): < 0.1 µM
SMILES: CC(C)(C)c1nc(-c2ccc3c(c2)[C@]2(COC(N)=N2)c2cc(-c4cccnc4)ccc2O3)cs1 [compound 622]

IC50 (BACE1 [1]; Table IV, class symbols): 1 to 5 µM
IC50 (BACE1 [2]; Table IV, class symbols): 0.1 to 1 µM
SMILES: CC(C)c1nc(-c2ccc3c(c2)[C@@]2(COC(N)=N2)c2cc(OCC(C)(C)C)ccc2O3)cs1 [compound 832]

IC50 (BACE1 [1]): 0.1 to 1 µM
IC50 (BACE1 [2]): 0.1 to 1 µM
SMILES: CCCOc1cc2c(cc1F)Oc1ccc(-c3cccnc3)cc1[C@]21COC(N)=N1 [compound 939]

IC50 (BACE1 [1]; HEK cell-based assay, Aβ40 in conditioned medium, IC50 class symbols): 1 to 5 µM
IC50 (BACE1 [2]; in vitro BACE FRET enzyme assay, IC50 class symbols): 0.1 to 1 µM
SMILES: COc1ccc2c(c1)[C@@]1(COC(N)=N1)c1cc(C3=CCOCC3)cc(F)c1O2 [compound 364]

IC50 (BACE1 [1]; Table III, IC50's in uM ranges): 0.1 to 1 µM
IC50 (BACE1 [2]; Table III, IC50's in uM ranges): 0.1 to 1 µM
SMILES: CC(C)(C)CC(O)c1ccc2c(c1)[C@@]1(COC(N)=N1)c1cc(-c3ccc(F)nc3)ccc1O2 (some centres unmarked) [162b]

IC50 (BACE1 [1]): 0.1 to 1 µM
IC50 (BACE1 [2]): < 0.1 µM
SMILES: NC1=N[C@@]2(CO1)c1cc(-c3cccnc3)ccc1Oc1ccc(C3CC3)cc12 [compound 758]
